Test results reported in patent US9920030B2 (priority 2006, dated 2018).
Where two headings read alike, the source gives them in different places.

Legend:
Format in all cases: in vivo
[1] = test system: Plasmopara vilicola (the causal agent of grape downy mildew); assay: Test A: grape downy mildew, test suspension sprayed on grape seedlings after inoculation, visual disease rating; conditions: for pest or weed control at 10 µg/mL / pest or weed control at 40 ppm: Plasmopara, 144 h, read-out: Percent Disease Control, Test A; for pest or weed control at 10 µg/mL: ** tested at l0 ppm
Description: General protocol for preparing test suspensions for Test A-C: The test compounds were first dissolved in acetone in an amount equal to 3% of the final volume and then suspended at the desired concentration (in ppm) in acetone and purified water (50/50 mix by volume) containing 250 ppm of the surfactant Trem® 014 (polyhydric alcohol esters). The resulting test suspensions were then used in Tests A-C. Spraying a 200 ppm test suspension to the point of run-off on the test plants was equivalent to a rate of 500 g/ha.
Grape seedlings were inoculated with a spore suspension of Plasmopara vilicola (the causal agent of grape downy mildew) and incubated in a saturated atmosphere at 20° C. for 24 h. After a short drying period, the test suspension was sprayed to the point of run-off on the grape seedlings, which were then moved to a growth chamber at 20° C. for 5 days, after which time the grape seedling were placed back into a saturated atmosphere at 20° C. for 24 h. Upon removal, visual disease ratings were made.
Results for Tests A-C are given in Table A. In the table, a rating of 100 indicates 100% disease control and a rating of 0 indicates no disease control (relative to the controls). A dash (-) indicates no test results.

[2] = test system: Phytophthora infestans (the causal agent of tomato late blight); assay: whole plant or invertebrate; conditions: for pest or weed control at 10 µg/mL / pest or weed control at 40 ppm: Phytophthora infestans, 144 h, read-out: Percent Disease Control, Test B
[3] = test system: Phytophthora infestans (the causal agent of tomato late blight); assay: whole plant or invertebrate; conditions: for pest or weed control at 10 µg/mL / pest or weed control at 40 ppm: Phytophthora infestans, 96 h, read-out: Percent Disease Control, Test C
[4] = compounds without asterisk (application rate not given), 100 = 100% disease control, 0 = no control relative to the controls

SMILES	Percent Disease Control, Test A ([1]; * tested at 40 ppm) [%]	Percent Disease Control, Test B ([2]; * tested at 40 ppm) [%]	Percent Disease Control, Test C ([3]; * tested at 40 ppm) [%]	Percent Disease Control, Test A [1, 4] [%]	Percent Disease Control, Test B [2, 4] [%]	Percent Disease Control, Test C [3, 4] [%]	further results
Cc1ccc(C)c(C2CC(c3csc(C4CCN(C(=O)Cn5nc(C(F)(F)F)cc5C)CC4)n3)=NO2)c1 (stereo not drawn) [Compound 133]	100	100	99				
Cc1cc(C(F)(F)F)nn1CC(=O)N1CCC(c2nc(C3=NOC4(CCC(C(C)(C)C)CC4)C3)cs2)CC1 (stereo not drawn) [Compound 138]	93	100	99				
COc1cccc(OC)c1C1CC(c2csc(C3CCN(C(=O)Cn4nc(C(F)(F)F)cc4C)CC3)n2)=NO1 (stereo not drawn) [Compound 206]	99	100	99				
Cc1cc(C(F)(F)F)nn1CC(=O)N1CCC(c2nc(C3=NOC(Cc4ccccc4S(N)(=O)=O)C3)cs2)CC1 (stereo not drawn) [Compound 262]	79	100	91				
Cc1cc(C(F)(F)F)nn1CC(=O)N1CCC(c2nc(C3=NOC(N(C)C(=O)c4ccccc4)C3)cs2)CC1 (stereo not drawn) [Compound 264]	99	100	88				
Cc1cc(C(F)(F)F)nn1CC(=O)N1CCC(c2nc(-c3ccc(-c4ccccc4)s3)cs2)CC1 [Compound 85]				85	70	0	
Cc1cc(C(F)(F)F)nn1CC(=O)N1CCC(c2nc(C3=NOC(c4ccc(C(F)(F)F)cc4)C3)cs2)CC1 (stereo not drawn) [Compound 97]	99	100	95				
Cc1cc(C(F)(F)F)nn1CC(=O)N1CCC(c2nc(C3=NO[C@@H](c4ccccc4)C3)cs2)CC1 [Compound 3, 1-[4-[4-[(5R)-4,5-dihydro-5-phenyl-3-isoxazolyl]-2-thiazolyl]-1-piperidinyl]-2-[5-methyl-3-(trifluoromethyl)-1H-pyrazol-1-yl]ethanone]							pest or weed control at 10 µg/mL [1]: 100%; pest or weed control at 10 µg/mL [2]: 100%; pest or weed control at 10 µg/mL [3]: 99%
Cc1cc(C(F)(F)F)nn1CC(=O)N1CCC(c2nc(C3=NOC(c4ccccc4C(F)(F)F)C3)cs2)CC1 (stereo not drawn) [Compound 114]	100	100	99				
Cc1cc(C(F)(F)F)nn1CC(=O)N1CCC(c2nc(-c3ccon3)cs2)CC1 [Compound 203]	99	100	92				
O=C(Cn1nc(C(F)(F)F)cc1Cl)N1CCC(c2nc(C3=NOC(c4ccccc4)C3)cs2)CC1 (stereo not drawn) [Compound 107, 2-[5-chloro-3-(trifluoromethyl)-1H-pyrazol-1-yl]-1-[4-[4-(4,5-dihydro-5-phenyl-3-isoxazolyl)-2-thiazolyl]-1-piperidinyl]ethanone]							pest or weed control at 40 ppm ([1]; * tested at 40 ppm): 100%; pest or weed control at 40 ppm [2]: 100%; pest or weed control at 40 ppm [3]: 99%
Cc1cc(C(F)(F)F)nn1CC(=O)N1CCC(c2nc(C3=N[C@@H](c4ccccc4)[C@@H](c4ccccc4)N3)cs2)CC1 [Compound 119]				0	82	0	
Cc1cc(C(F)(F)F)nn1CC(=O)N1CCC(c2nc(C3=NOC(c4ccc(-c5ccccc5)cc4)C3)cs2)CC1 (stereo not drawn) [Compound 106]	80	85	24				
Cc1cc(C(F)(F)F)nn1CC(=O)N1CCC(c2nc(C3=NOC(c4cnccn4)C3)cs2)CC1 (stereo not drawn) [Compound 111]	97	100	97				
Cc1cc(C(F)(F)F)nn1CC(=O)N1CCC(c2nc(-c3ccc(CC(C)C)cc3)cs2)CC1 [Compound 274]				99	100	100	
Cc1cc(C(F)(F)F)nn1CC(=O)N1CCC(c2nc(-c3csc(-c4ccccc4)n3)cs2)CC1 [Compound 84]				67	33	0	
Cc1cc(C(F)(F)F)nn1CC(=O)N1CCC(c2nc(C3=NOC4c5ccccc5CC34)cs2)CC1 (stereo not drawn) [Compound 51]				99	100	99	

SMILES	Percent Disease Control, Test A ([1]; * tested at 40 ppm) [%]	Percent Disease Control, Test B ([2]; * tested at 40 ppm) [%]	Percent Disease Control, Test C ([3]; * tested at 40 ppm) [%]	Percent Disease Control, Test A [1, 4] [%]	Percent Disease Control, Test B [2, 4] [%]	Percent Disease Control, Test C [3, 4] [%]	further results
Cc1cc(C(F)(F)F)nn1CC(=O)N1CCC(c2nc(C3=NC(c4ccccc4)CCO3)cs2)CC1 (stereo not drawn) [Compound 54]				16	73	0	
Cc1cc(C(F)(F)F)nn1CC(=O)N1CCC(c2nc(C3CC(c4ccccc4)=NO3)cs2)CC1 (stereo not drawn) [Compound 6, 4-[4-(4,5-dihydro-3-phenyl-5-isoxazolyl)-2-thiazolyl]-1-[(5-methyl-3-(trifluoromethyl)-1H-pyrazol-1-yl)acetyl]piperidine]							pest or weed control at 40 ppm ([1]; * tested at 40 ppm): 95%; pest or weed control at 40 ppm [2]: 100%; pest or weed control at 40 ppm [3]: 99%
Cc1cc(C(F)(F)F)nn1CC(=O)N1CCC(c2nc(C3=NOC4(CCCc5cc(C#N)ccc54)C3)cs2)CC1 (stereo not drawn) [Compound 251]	99	100	99				
Cc1cc(C(F)(F)F)nn1CC(=O)N1CCC(c2nc(-c3cc(-c4ccccc4C(F)(F)F)on3)cs2)CC1 [Compound 60]				100	95	94	
Cc1cc(C(F)(F)F)nn1CC(=O)N1CCC(c2nc(C3=NOC(C#N)C3)cs2)CC1 (stereo not drawn) [Compound 66]				48	63	73	
C[C@]1(c2ccccc2)CC(c2csc(C3CCN(C(=O)Cn4nc(C(F)(F)F)cc4Cl)CC3)n2)=NO1 (racemic) [Compound 261, 2-[5-chloro-3-(trifluoromethyl)-1H-pyrazol-1-yl]-1-[4-[4-[(5R)-4,5-dihydro-5-methyl-5-phenyl-3-isoxazolyl]-2-thiazolyl]-1-piperidinyl]ethanone]							pest or weed control at 10 µg/mL [1]: 100%; pest or weed control at 10 µg/mL [2]: 100%; pest or weed control at 10 µg/mL [3]: 93%
Cc1cc(C(F)(F)F)nn1CC(=O)N1CCC(c2nc(C3=NOC4c5ccccc5S(=O)(=O)C34)cs2)CC1 (stereo not drawn) [Compound 202]				95	100	98	
COC(=O)CC1CC(c2csc(C3CCN(C(=O)Cn4nc(C(F)(F)F)cc4C)CC3)n2)=NO1 (stereo not drawn) [Compound 116]				46	100	79	
COCC1(c2ccccc2)CC(c2csc(C3CCN(C(=O)Cn4nc(C(F)(F)F)cc4C)CC3)n2)=NO1 (stereo not drawn) [Compound 141]	99	100	99				
Cc1cc(C(F)(F)F)nn1CC(=O)N1CCC(c2nc(-c3cc(-c4ccc(Cl)cc4Cl)no3)cs2)CC1 [Compound 86]				83	79	14	
Cc1cc(C(F)(F)F)nn1CC(=O)N1CCC(c2nc(C3=NOC(N4C(=O)CCC4=O)C3)cs2)CC1 (stereo not drawn) [Compound 215]	99	100	99				
Cc1cc(C(F)(F)F)nn1CC(=O)N1CCC(c2nc(C3=NO[C@]4(COc5ccccc54)C3)cs2)CC1 [Compound 185, 2-[5-methyl-3-(trifluoromethyl)-1H-pyrazol-1-yl]-1-[4-[4-(3R)-spiro[benzofuran-3(2H),5′(4′H)-isoxazol]-3′-yl-2-thiazolyl]-1-piperidinyl]ethanone]							pest or weed control at 40 ppm ([1]; * tested at 40 ppm): 100%; pest or weed control at 40 ppm [2]: 100%; pest or weed control at 40 ppm [3]: 98%
Cc1cc(C(F)(F)F)nn1CC(=O)N1CCC(c2nc(C3=NOC(Cc4ccccc4)C3)cs2)CC1 (racemic) [Compound 24]				99	100	93	
Cc1cc(C(F)(F)F)nn1CC(=O)N1CCC(c2nc(-c3cc(-c4ccccc4C(=O)O)on3)cs2)CC1 [Compound 210]				91	100	83	
Cc1cc(C(F)(F)F)nn1CC(=O)N1CCC(c2nc(-c3ccc(I)cc3)cs2)CC1 [Compound 250]	86	58	0				
Cc1cc(C(F)(F)F)nn1CC(=O)N1CCC(c2nc(-c3cccc(-c4ccccc4)c3)cs2)CC1 [Compound 74]				50	40	0	
Cc1cc(C(F)(F)F)nn1CC(=O)N1CCC(c2nc(C3CC(=O)N(c4ccccc4)C3)cs2)CC1 (stereo not drawn) [Compound 65]				46	100	83	
